# In patent US9943524B2, “Use of alkaloid in preparing pharmaceutical compositions for preventing or treating pulmonary fibrosis” (China Pharmaceutical University, priority 2014, dated 2018):
# How the values were obtained:
# [1] = tested on: pulmonary fibrosis mice induced by bleomycin; experiment: HE stained pathological evaluation and inflammation scores (Embodiment 4); assay type: in vivo, C57BL/6 mice; conditions: for lung tissue inflammation scores (HE stained, grade 0-3): 30, 60 mg/kg, prevention and treatment groups (FIG. 4), lower dose better; for pulmonary inflammation and injury, HE stained pathological changes: prevention groups and treatment groups (FIG. 3), lower dose (30 mg/kg) better than higher dose
# Protocol: (§1) Female C57BL/6 mice (eight-week-old) are established for models after 7 days, the time is set for the mice to adapt to the environment. After fasts for overnight, the mice are anaesthetized by 3% chloral hydrate and fixed. Sterilize and incise neck skin longitudinally as little injury as possible. Split fascia and muscle with tweezers longitudinally and expose the windpipe. Then, about 35 μl (3.5 mg/kg) bleomycin are injected into windpipe with microinjector. Put the mice upright rapidly and rotate the mice for 3˜5 minutes, so that bleomycin is able to enter into the pulmones uniformly. Observe the breathing of mice. Sterilize neck injury with 75% alcohol tampon and stitch the wound, then 1 drop or 2 drops of benzylpenicillin injection is/are dripped into the suture. Put the mice back into dry and clean cages, and feed them normally after waking up. Operations are done on operating table at about […]. Physiological saline using in injection is injected into windpipe of sham operation group.
# (§2) Model animals are divided into prevention groups and treatment groups, then drugs are given to the two groups respectively. According to internationally methods of drug administration, drugs are given continuously to the prevention groups by means of intragastric administration from the second day after successfully establishing model to the 14th day, and drugs are given continuously to treatment groups by means of intragastric administration from the 8th day after successfully establishing model to the 21th day. Groups and dosage regimen are shown in tab.1.
# After the last intragastric administration, the mice are anaesthetized and killed to collect the lung tissue. Immerse the left lobule in 10% formalin, and embed it by paraffin after being fixed, then cut it into slices to observe the pathological changes by HE staining. As is shown in FIG. 3, structures of lobules of sham operation group are normal and the alveolar walls are complete without inflammation and fibrosis pathological changes. Obvious inflammation injury and masses of tissue begin to appear in lung of mice in model group, then the normal lung tissue disappears and alveolar is blocked. […] The groups with lower dose (30 mg/kg) of the 3 compounds show better effect than the groups with higher dose. The pulmonary inflammation disappears and alveolar structure is clear in groups with lower dose.
# Inflammatory classification semi quantitative statistics analysis is made according to results of HE staining. Grade 0 represents normal tissue or minimal inflammation change. Grade 1 (+) represents mild to moderate inflammation change, and lung tissue without obvious damage. Grade 2 (++) represents moderate to severe inflammation injury, and alveolar septum is thickened to form masses of tissue, or lung tissue with damage caused by partial area inflammation. Grade 3 (+++) represents severe inflammation injury, and structure of restricted regions in lung tissue is severely damaged, thus resulting in obliteration. […] The groups with lower dose show better effect than the groups with higher dose. In general, the 3 compounds have better effect in decreasing the pulmonary inflammation than the positive drug pirfenidone.
# TGF-β1 = experiment: ELISA content determination of TGF-β1 in mice lung tissue (Embodiment 4); assay type: in vivo, C57BL/6 mice; conditions: for content of TGF-β1 in lung tissue (ELISA): 30 mg/kg and 60 mg/kg, prevention groups and treatment groups, versus model group (FIG. 8), lower dose more effective; for effect on content of TGF-β1, comparison among compounds: ELISA, lung tissue
# Protocol: as §1, §2
# TGF-β1 is a universally recognized strong pro-fibrotic cytokine. It can stimulate the cells to synthesize and secrete extracellular matrix as well as exchange the activity of matrix-degrading enzyme component and directly increase the deposition of ECM. The progress of pulmonary fibrosis can be slowed down by decreasing the content of TGF-β1 in lung tissue. Elisa test kit (which is purchased from Shanghai Excell Biological Technology Co., Ltd.) according to specification is used in the determination of TGF-β1 in mice lung tissue. Results can be seen in FIG. 8.
# [2] = tested on: pulmonary fibrosis mice induced by bleomycin; experiment: Determination of mice mortality (Embodiment 4); assay type: in vivo, C57BL/6 mice
# Protocol: as §1, §2
# From the 0th day (the day when the model is established) to 14th day, drugs are given continuously to prevention groups. From the 8th day after successfully establishing model to 21th day, drugs are given continuously to treatment groups. Statistical analysis of death of animals in each group is carried on every day and the survival rate of animals in each group is calculated. Results are shown in tab.2.
# [3] = tested on: pulmonary fibrosis mice induced by bleomycin; experiment: Masson stained pathological evaluation and imaging analysis of collagen (Embodiment 4); assay type: in vivo, C57BL/6 mice; conditions: for collagen deposition (Masson staining, integrated optical density): 30, 60 mg/kg, prevention and treatment groups (FIG. 5, 6), lower dose better in prevention, higher dose better in treatment
# Protocol: as §1, §2
# Masson staining is a method aiming at specific staining of fibrillar collagen. After the last intragastric administration, the mice are anaesthetized and killed to collect the lung tissue. Immerse the left lobule in 10% formalin, and embed it by paraffin after being fixed, then is cut it into slices to observe the collagen deposition by Masson staining. Semi quantitative analysis is made by using Image-Pro Plus6.0. Integrated optical density (IOD) of collagen in each visual field is measured after Masson staining. 5 samples are studied in each group and 5 visual fields are picked out from each group. Statistics analysis is made by calculating mean value which is considered as relative amount of collagen in each group.
# [4] = tested on: pulmonary fibrosis mice induced by bleomycin; experiment: Activity of 8 alkaloids and pentoxyverine against pulmonary fibrosis in mice (Embodiment 3); assay type: in vivo, C57BL/6 mice; conditions: intragastric from first day after model to 21th day; for pulmonary inflammation, injury and fibrosis in HE and Masson stained pathological sections: alkaloids and pentoxyverine 30 mg/kg (FIG. 1B, 1C)
# Protocol: as §1
# Experimental mice are randomly divided into 12 groups: 10 mice in model group, 10 mice in pentoxyverine group, and 5 mice in any other group. Group 1 is sham operation group, group 2 is model group, group 3 is pentoxyverine group, group 4 is positive drug pirfenidone group, groups 5-12 are compounds I-VIII administration group respectively. Models of groups 2-12 are established by using bleomycin with the same method used in embodiment 2. From the first day after successfully establishing model, 30 mg/kg pentoxyverine and 300 mg/kg pirfenidone are given to group 3 and group 4 by means of intragastric administration respectively. 30 mg/kg compounds I-VIII are given to groups 5-12 also by means of intragastric administration respectively. Besides, same doses of solvent are given to sham operation group and model group until the 21th day. After the last intragastric administration, the mice are killed to collect the lung tissue, and the right lobule is used for determining the content of hydroxyproline, while the left lobule is used for preparing pathological sections.
# [5] = tested on: pulmonary fibrosis mice induced by bleomycin; experiment: Content determination of hydroxyproline in lung tissue (Embodiment 4); assay type: in vivo, C57BL/6 mice; conditions: 30 mg/kg and 60 mg/kg, prevention groups and treatment groups (FIG. 7); lower dose slightly better
# Protocol: as §1, §2
# Hydroxyproline mainly exists in collagen protein, but there is only a very small amounts in elastin proteins and it cannot found in other proteins. Therefore the content of collagen protein can be indicated by measuring the content of hydroxyproline, so as to evaluate the degree of pulmonary fibrosis. Method of test kit (which is purchased from Nanjing Jiancheng Biological Technology Co., Ltd.) according to specification is used in determination of hydroxyproline. Results can be seen in FIG. 7.
# [6] = tested on: pulmonary fibrosis mice induced by bleomycin; experiment: Detection of the mice lung index (Embodiment 4); assay type: in vivo, C57BL/6 mice; conditions: 30 and 60 mg/kg, prevention groups and treatment groups, versus model group (FIG. 2); lower dose better in prevention groups
# Protocol: as §1, §2
# After the last intragastric administration, the mice are killed to strip and weigh the lung, and the lung index is the lung weight divided by mouse weight (FIG. 2). […] In general, the 3 compounds have better effect in decreasing the mortality of mice than the positive drug pirfenidone.
# cough reflex pathway = conditions: in vivo; cited from earlier work
# [7] = tested on: cough of guinea pig induced by citric acid; conditions: cited from earlier work
# [8] = prevention groups, 30 mg/kg intragastric to the 14th day
# [9] = prevention groups, 30 mg/kg intragastric to the 14th day, 10 animals
# [10] = prevention groups, 60 mg/kg intragastric to the 14th day
# [11] = prevention groups, 60 mg/kg intragastric to the 14th day, 10 animals
# [12] = treatment groups, 30 mg/kg intragastric from the 8th to the 21th day
# [13] = treatment groups, 30 mg/kg intragastric from the 8th to the 21th day, 18 animals
# [14] = treatment groups, 60 mg/kg intragastric from the 8th to the 21th day
# [15] = treatment groups, 60 mg/kg intragastric from the 8th to the 21th day, 18 animals
smiles,measurement,setting,value
"CC[C@@H]1[C@H]2CCCCN3[C@H]2[C@H](C[C@H]3[C@@H]2C[C@H](C)C(=O)O2)[C@@H]2[C@H]1OC(=O)[C@H]2C [Compound I, Tuberostemonine]","lung tissue inflammation scores (HE stained, grade 0-3)",[1],significantly decrease the pulmonary inflammation
same,"pulmonary inflammation and injury, HE stained pathological changes",[1],significantly alleviate the pulmonary inflammation
same,content of TGF-β1 in lung tissue (ELISA),TGF-β1,effectively decrease the content of TGF-β1
same,"effect on content of TGF-β1, comparison among compounds",TGF-β1,slightly better than that of compound VII
same,Survival rate,[2]; [8],100%
same,Mortality (number of dead animals),[2]; [9],0
same,Survival rate,[2]; [10],90%
same,Mortality (number of dead animals),[2]; [11],1
same,"protective effect on model mice (mortality), comparison among compounds","[2]; prevention groups, lower dose (30 mg/kg) better",more effective than compound VIII
same,Survival rate,[2]; [12],89%
same,Mortality (number of dead animals),[2]; [13],2
same,Survival rate,[2]; [14],83%
same,Mortality (number of dead animals),[2]; [15],3
same,"collagen deposition (Masson staining, integrated optical density)",[3],significantly decrease collagen deposition
same,"effect in decreasing the collagen deposition, comparison among compounds","[3]; in general, Masson staining",slightly better than that of compound VIII
same,"pulmonary inflammation, injury and fibrosis in HE and Masson stained pathological sections",[4],recover to nearly normal structure
same,content of hydroxyproline in lung tissue,[5],effectively decrease the content of hydroxyproline
same,lung index (lung weight divided by mouse weight),[6],significantly decrease the lung index
same,"antitussive activities, comparison among stemona tuberosa alkaloids",cough reflex pathway,weaker
"CC[C@@H]1[C@H]2CCCCN3[C@H]2[C@H](C[C@@H]3[C@@H]2C[C@H](C)C(=O)O2)[C@@H]2[C@H]1OC(=O)[C@H]2C [Compound II, Tuberostemonine A]","pulmonary inflammation, injury and fibrosis in HE and Masson stained pathological sections",[4],recover to nearly normal structure
"CC[C@@H]1[C@@H]2CCCCN3[C@@H]2[C@@H](C[C@H]3[C@@H]2C[C@H](C)C(=O)O2)[C@H]2[C@@H]1OC(=O)[C@H]2C [Compound III, Tuberostemonine J]",antitussive effect,[7],very good antitussive effect
same,antitussive effect compared with codein,[7],weaker antitussive effect than that of codein
same,"pulmonary inflammation, injury and fibrosis in HE and Masson stained pathological sections",[4],recover to nearly normal structure
"CC[C@@H]1[C@H]2CCCCN3[C@@H]2[C@@H](C[C@H]3[C@@H]2C[C@H](C)C(=O)O2)[C@H]2[C@@H]1OC(=O)[C@H]2C [Compound IV, Tuberostemonine H]",antitussive effect,[7],very good antitussive effect
same,antitussive effect compared with codein,[7],weaker antitussive effect than that of codein
"CC[C@@H]1[C@H]2CCCCN3CC[C@H]([C@@H]4[C@H]1OC(=O)[C@@H]4C)[C@@H]23 [Compound VIII, Sessilifoline B]","lung tissue inflammation scores (HE stained, grade 0-3)",[1],significantly decrease the pulmonary inflammation
same,"pulmonary inflammation and injury, HE stained pathological changes",[1],significantly alleviate the pulmonary inflammation
same,content of TGF-β1 in lung tissue (ELISA),TGF-β1,effectively decrease the content of TGF-β1
same,"effect on content of TGF-β1, comparison among compounds",TGF-β1,slightly better than that of compound VII
same,Survival rate,[2]; [8],90%
same,Mortality (number of dead animals),[2]; [9],1
same,Survival rate,[2]; [10],80%
same,Mortality (number of dead animals),[2]; [11],2
same,Survival rate,[2]; [12],83%
same,Mortality (number of dead animals),[2]; [13],3
same,Survival rate,[2]; [14],78%
same,Mortality (number of dead animals),[2]; [15],4
same,"collagen deposition (Masson staining, integrated optical density)",[3],significantly decrease collagen deposition
same,"pulmonary inflammation, injury and fibrosis in HE and Masson stained pathological sections",[4],recover to nearly normal structure
same,content of hydroxyproline in lung tissue,[5],effectively decrease the content of hydroxyproline
same,lung index (lung weight divided by mouse weight),[6],significantly decrease the lung index
"CCN(CC)CCOCCOC(=O)C1(c2ccccc2)CCCC1 [Pentoxyverine, pentoxyverine, reference compound]","pulmonary inflammation, injury and fibrosis in HE and Masson stained pathological sections",[4],cannot decrease the degree of pulmonary injury and fibrosis
same,content of hydroxyproline in lung tissue,"[4]; alkaloids and pentoxyverine 30 mg/kg, pirfenidone 300 mg/kg, versus model group (FIG. 1A)",no significant difference
"C[C@@H]1C[C@]2(CCCCN3[C@H]2CC[C@H]3[C@@H]2C[C@H](C)C(=O)O2)OC1=O [croomine, reference compound]","antitussive activities, comparison among stemona tuberosa alkaloids",cough reflex pathway,similar
"CC[C@@H]1[C@H]2CCCCN3CC[C@@H]([C@H]4[C@@H]1OC(=O)[C@H]4C)[C@@H]23 [isostenine, reference compound]",antitussive effect,[7],very good antitussive effect
"CC[C@H]1[C@H]2[C@@H](CCCN3[C@H]2CC[C@H]3[C@@H]2C[C@H](C)C(=O)O2)O[C@]12C=C(C)C(=O)O2 [stemoninine, reference compound]","antitussive activities, comparison among stemona tuberosa alkaloids",cough reflex pathway,similar
